The record followed here is paper PMC9818021, “Targets, Mechanisms and Cytotoxicity of Half-Sandwich Ir(III) Complexes Are Modulated by Structural Modifications on the Benzazole Ancillary Ligand” (Cancers, 2022).

Where two headings read alike, the source gives them in different places.

In general, IC50 refers to the midpoint of a concentration-inhibition curve. Lower therefore signals inhibition by little substance.

Data set [1] can be described thus: Acid dissociation constants from absorbance vs pH. The class given is physicochemical. The note with it: for pKa1: water dissociation to give the hydroxo complex; for pKa: free ligand; for pKa2: NH dissociation to give the N anion. On the procedure:
The pH measurements were carried out with a Metrohm 16 DMS Titrino pH meter fitted out with a combined glass electrode with a 3 M KCl solution as a liquid junction. HClO4 and NaOH solution were used to adjust the pH.
(§1) The UV-vis measurements were performed with a Hewlett-Packard 8453A (Agilent Technologies, Palo Alto, CA, USA) photodiode array spectrophotometer with a Peltier temperature control system. Titrations were carried out at 25 °C by adding increasing amounts of DNA solution to the iridium complex solution. The pKa values were measured by analysing the absorbance change of iridium complex solutions recorded at different pH values. The melting experiments were carried out using a DNA solution varying the CIr-complex/CDNA (CD/CP) ratio from 0 to 1, keeping CP constant and recording the absorbance spectra while heating from 25 to 90 °C at 0.3 °C/min.

Data set [2] can be described thus: Aquation/solvolysis kinetics (UV-vis). The format is physicochemical. How it is done:
Aquation/solvolysis. Chloride displacement was qualitatively monitored by ^1H-NMR for some of the complexes in DMSO-d6. The replacement of the chloride by a DMSO molecule was observed as some peaks shifted and some new peaks appeared corresponding to the methyl groups of the DMSO molecule. Aquation/solvolysis equilibria were studied by kinetic UV-vis measurements.
as §1
The slow kinetic measurements were performed with the previous spectrophotometer while the fast kinetic measurements were performed in a stopped flow Bio-Logic SFM-300 spectrophotometer with an absorbance detection system and dead time below 3 ms. The kinetic curves, obtained averaging out at least five shots, were analysed with the Jandel (AISN software, Mapleton, OR) fitting package.

The subject of data set [3] is A549 (epithelial lung adenocarcinoma cells). The experiment in a line: MTT cytotoxicity assay. The format is cell-based, human. The note with it: A549, 48 h. How it is done:
(§2) Cell culture. Epithelial ovarian carcinoma cells (A2780) that acquired resistance to cisplatin epithelial ovarian carcinoma cells (A2780cis), colon adenocarcinoma cells (SW480) and epithelial lung adenocarcinoma cells (A549) were provided by Sigma Aldrich. A549 and SW480 cells were grown in Dulbecco′s Modified Eagle′s Medium (DMEM), supplemented with 10% Fetal Bovine Serum (FBS) and 1% penicillin, streptomycin and 1% glutamine for A549 and 1% amphotericin B for SW480. The A2780 and A2780cis were grown in RPMI 1640 supplemented with 10% Fetal Bovine Serum (FBS), 1% glutamine and 1% penicillin, streptomycin and amphotericin B. All cells were incubated in a humidified incubator at 37 °C under a 5% CO2 atmosphere and grown in 100 mm culture dishes to approximately 70–80% confluence. For subculturing, cells were detached with Trypsin-EDTA (Sigma). A549-gal were derived from A549 cultured in glucose-free medium supplemented with 10 mM galactose (Sigma) for at least 10 passes.
(§3) Cytotoxicity. MTT Assay and IC50 estimation. The cytotoxicity of 1[C,NH-Cl], 2[C,NMe-Cl], 3[N,NH-Cl]Cl, 4[N,NMe-Cl]Cl, 5[CNH2,NH-Cl]Cl, 6[CNH2,S-Cl]Cl, 7[CO,NH-Cl] and 8[CO,S-Cl] in A2780, A2780cis, SW480 and A549 carcinoma cells was evaluated by the MTT colorimetric assay. Cells were seeded in 96-well plates at 5000 cells per well and incubated at 37 °C, 5% CO2. After 24 h, the medium was removed and replaced with fresh medium with different concentrations of the compounds under study, and they were incubated for 48 h. Final DMSO concentration was kept below 0.7% in wells. For a negative control, one sequence of cells was left untreated and for vehicle control, cells treated with DMSO were included. For cell viability experiments preincubating with NAC (N-Acetyl-L-Cysteine), the cells were pre-treated with NAC, 10 mM for 2 h before the incubation with complex 1[C,NH-Cl] for 24 h. Then, the medium was removed from the wells, and 100 µL MTT (5 mg/mL) was added. After an incubation time of 4 h, 100 μL of solubilizing detergent solution (SDS, 10% in HCL 0.01 M) was added and kept in the incubator overnight. Cell growth inhibition was detected by measuring the absorbance of each well at 595 nm using a BioTek Cytation5 microplate reader. Each test was repeated in quadruplicate in three independent experiments for each cell line. The percentage of survival cells was calculated using absorbance measurements compared with control and the IC50 estimation using Graph Pad Prism version 6.01.

The subject of data set [4] is SW480 (colon adenocarcinoma cells). The experiment in a line: MTT cytotoxicity assay. The format is cell-based, human. The note with it: SW480, 48 h. On the procedure: as §2, §3
(Tetrazolium dyes change colour on reduction, which living cells bring about.)

In data set [5] the test system is A2780cis (ovarian, acquired resistance to cisplatin). The experiment in a line: MTT cytotoxicity assay. The format is cell-based, human. The note with it: A2780cis, 48 h. On the procedure:
as §2, §3

For data set [6], the system named is A2780 (epithelial ovarian carcinoma cells). The experiment in a line: MTT cytotoxicity assay. The note with it: A2780, 48 h. The class given is cell-based, human. On the procedure: as §2, §3
A further data set is described as follows: Qualitative solubility. The class given is physicochemical. The note with it: 1-2 mg, solvent up to 1 mL. On the procedure:
Solubility. The solubility of the complexes was qualitatively assessed. Different solvents were added drop-by-drop while shaking to a small amount of complex (around 1–2 mg) in a vial until the solvent added exceeded 1 mL. Afterwards, it was checked if the solid was or not completely dissolved and/or if the solution got coloured.

Take `Cc1c(C)c(C)[c-](C)c1C.Cn1c2[n+](c3ccccc31)[Ir]([S+](C)(C)=O)[c]1ccccc1-2` [2[C,NMe-DMSO]+]: the Acid-base equilibrium entry in data set [1] (absorbance vs pH) is reported as “did not exhibit any acid–base equilibrium”.
`Cc1c(C)c(C)[c-](C)c1C.Cn1c2[n+](c3ccccc31)[Ir]([OH2+])[n+]1ccccc1-2` [4[N,NMe-H2O]2+] yielded a pKa1 in data set [1] of 7.48 ± 0.01.
On to `Cc1c(C)c(C)[c-](C)c1C.[OH2+][Ir]1[NH2+]c2ccccc2-c2sc3ccccc3[n+]21` [6[CNH2,S-H2O]2+], for which the pKa1 in data set [1] is given as 8.70 ± 0.04. Further, in data set [2] (aqueous solution), the “kaq (Cl-complex to H2O-complex)” value was “(2.12 ± 0.01) × 10^−4 s-1”.
With `C[S+](C)(=O)[Ir]1[O]c2ccccc2-c2sc3ccccc3[n+]21.Cc1c(C)c(C)[c-](C)c1C` [8[CO,S-DMSO]+], the “kDMSO (Cl-complex to DMSO-complex)” value in data set [2] (in DMSO) was “(3.11 ± 0.25) × 10^−4 s-1”.
As to `c1ccc(-c2nc3ccccc3[nH]2)cc1` [2-phenylbenzimidazole], the pKa in data set [1] (deprotonation of the pyridine type N atom, read-out: pKa1) was 5.2 ± 0.1; in data set [1] (pyrrole type N atom, read-out: pKa2), 11.8 ± 0.1.
The molecule `C[S+](C)(=O)[Ir]1[O]c2ccccc2-c2[nH]c3ccccc3[n+]21.Cc1c(C)c(C)[c-](C)c1C` [7[CO,NH-DMSO]+] showed a pKa2 in data set [1] of 9.06 ± 0.06.
For `N.N.[Cl][Pt][Cl]` [cisPt, cisplatin, reference compound], the IC50 in data set [3] was 33 ± 6 µM; in data set [4], 34 ± 1 µM; in data set [5], 60 ± 1 µM; in data set [6], 7 ± 1 µM.
As for `Cc1c(C)c(C)[c-](C)c1C.[OH2+][Ir]1[n+]2ccccc2-c2[nH]c3ccccc3[n+]21` [3[N,NH-H2O]2+], in data set [1], the pKa2 came out at 8.44 ± 0.06 and the pKa1 is recorded as 6.08 ± 0.04.
Take `C[S+](C)(=O)[Ir]1[c]2ccccc2-c2[nH]c3ccccc3[n+]21.Cc1c(C)c(C)[c-](C)c1C.[Cl-]` [1[C,NH-DMSO]+, [(η^5-Cp*)Ir(DMSO)(κ^2-N,C-pbim)]Cl]: the pKa2 in data set [1] is 8.44 ± 0.03. Also, in the data set “Qualitative solubility”, the Solubility in water result is “soluble in dimethyl sulfoxide and water”.
In the case of `Cc1c(C)c(C)[c-](C)c1C.[OH2+][Ir]1[NH2+]c2ccccc2-c2[nH]c3ccccc3[n+]21` [5[CNH2,NH-H2O]2+], in data set [1], the pKa2 was found to be 11.30 ± 0.17 and the pKa1 was determined as 7.48 ± 0.04.
